Measurements reported in US8263605B2, “Modulators of muscarinic receptors” (Vertex Pharmaceutical Incorporated, priority 2006, dated 2012).

Legend:
[1] = target: T1, M1 muscarinic receptor (Homo sapiens, UniProt P11229); assay: Functional mobilization of intracellular calcium (FLIPR), M1-CHO cells; assay type: cell-based; details: for Emax: 100% efficacy is the maximum response obtained with the Carbachol control; for M1 Activity: CHO cells expressing M1, calcium mobilization
T1 construct: expressed in transfected cells; host or cells: CHO (M1-CHO)
T1 sequence (P11229 1-460): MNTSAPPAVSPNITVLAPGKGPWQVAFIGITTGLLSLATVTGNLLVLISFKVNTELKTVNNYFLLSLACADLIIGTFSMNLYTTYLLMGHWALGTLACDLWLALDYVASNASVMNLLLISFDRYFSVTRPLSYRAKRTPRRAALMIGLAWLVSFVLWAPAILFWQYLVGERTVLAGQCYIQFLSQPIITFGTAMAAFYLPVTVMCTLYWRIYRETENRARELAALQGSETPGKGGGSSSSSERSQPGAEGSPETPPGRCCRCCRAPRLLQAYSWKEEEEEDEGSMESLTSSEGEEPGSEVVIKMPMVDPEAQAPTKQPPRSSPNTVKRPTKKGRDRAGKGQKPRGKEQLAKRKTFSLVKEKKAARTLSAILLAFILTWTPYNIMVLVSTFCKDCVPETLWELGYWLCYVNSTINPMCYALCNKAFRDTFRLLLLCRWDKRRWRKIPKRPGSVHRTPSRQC
Procedure, shortened: (§1)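 Recombinant CHO cells loaded with Fluo-3 AM or Calcium 3 dye; fluorescence recorded 60 s on FLIPR in pH 7.4 buffer with 1 mM probenecid, 0.5% DMSO. Agonist mode: compound alone; antagonist mode: 15 min preincubation (or co-application) then carbachol at EC80. Efficacy relative to maximal carbachol response.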

[2] = target: T2, M4 muscarinic receptor (Homo sapiens, UniProt P08173); assay: Functional mobilization of intracellular calcium (FLIPR), M4-CHO cells; assay type: cell-based; details: for Emax: 100% efficacy is the maximum response obtained with the Carbachol control; for M4 Activity: CHO cells expressing M4, calcium mobilization
T2 construct: expressed in transfected cells; host or cells: CHO (M4-CHO)
T2 sequence (P08173 1-479): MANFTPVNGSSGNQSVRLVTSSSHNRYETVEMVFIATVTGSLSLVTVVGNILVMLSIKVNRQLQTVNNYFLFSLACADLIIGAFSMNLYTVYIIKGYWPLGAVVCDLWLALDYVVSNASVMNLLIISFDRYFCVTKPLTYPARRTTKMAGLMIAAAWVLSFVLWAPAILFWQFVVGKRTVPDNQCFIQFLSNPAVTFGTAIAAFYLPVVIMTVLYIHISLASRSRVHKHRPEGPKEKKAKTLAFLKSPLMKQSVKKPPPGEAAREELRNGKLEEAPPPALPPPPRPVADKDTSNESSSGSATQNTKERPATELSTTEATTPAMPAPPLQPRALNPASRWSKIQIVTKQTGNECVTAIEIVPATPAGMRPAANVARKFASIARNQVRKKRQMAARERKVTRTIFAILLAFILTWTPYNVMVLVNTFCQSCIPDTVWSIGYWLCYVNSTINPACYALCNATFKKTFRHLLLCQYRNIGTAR
Procedure, shortened: as §1

Row | SMILES | Emax [1] [%] | M1 Activity [1] | Emax [2] [%] | M4 Activity [2]
1 | Cc1cnc(N2CCC(N3CCC4(CC3)CN(C(=O)N(C)C)c3ccccc34)CC2)s1 [compound 116] | < 25 | + (activity was measured to be greater than 10.0 μM) | < 25 | + (activity was measured to be greater than 10.0 μM)
2 | Cc1nsc(N2C3CCC2CC(N2CCC4(CCN(C(=O)N(C)C)c5ccccc54)CC2)C3)n1 (stereo not drawn) [compound 31] | 25 to 100 | +++ (activity was measured to be less than 2.0 μM) | 25 to 100 | +++ (activity was measured to be less than 2.0 μM)
3 | CN(C)C(=O)N1CC2(CCN(C3CCCN(C(=O)O[C@@H]4CCOC4)CC3)CC2)c2ccccc21 (stereo partly drawn) [compound 73] | < 25 | ++ (activity was measured to be from 2.0 μM to 10.0 μM) | 25 to 100 | +++ (activity was measured to be less than 2.0 μM)
4 | CCCOC(=O)N1CCC(N2CCC3(CC2)CN(C(=O)N(C)C)c2ccccc23)CC1 [compound 40] | 25 to 100 | +++ (activity was measured to be less than 2.0 μM) | 25 to 100 | +++ (activity was measured to be less than 2.0 μM)
5 | C#CCOC(=O)N1CCC(N2CCC3(CCN(C(C)=O)c4ccccc43)CC2)CC1 [compound 12] | > 100 | +++ (activity was measured to be less than 2.0 μM) | 25 to 100 | +++ (activity was measured to be less than 2.0 μM)
6 | Cc1cncc(N2CCC(N3CCC4(CCN(C(=O)N(C)C)c5ccccc54)CC3)CC2)n1 [Compound No. 9, N,N-dimethyl-1-(1-(6-methylpyrazin-2-yl)piperidin-4-yl)-2′,31-dihydrospiro[piperidine-4,4′-quinoline]-1′-carboxamide] | 25 to 100 | +++ (activity was measured to be less than 2.0 μM) | 25 to 100 | +++ (activity was measured to be less than 2.0 μM)
7 | CCC#CCOC(=O)N1CC[C@H](CN2CCC3(CC2)CN(C(=O)N(C)C)c2ccccc23)C1 [compound 102] | 25 to 100 | +++ (activity was measured to be less than 2.0 μM) | > 100 | +++ (activity was measured to be less than 2.0 μM)
8 | C#CCCOC(=O)N1CCC(N2CCC3(CC2)CN(C(=O)N(C)C)c2ccccc23)CC1 [compound 44] | 25 to 100 | +++ (activity was measured to be less than 2.0 μM) | 25 to 100 | +++ (activity was measured to be less than 2.0 μM)
9 | CCC#CCOC(=O)N1CC[C@@H](CN2CCC3(CC2)CN(C(=O)N(C)C)c2ccccc23)C1 [compound 99] | 25 to 100 | +++ (activity was measured to be less than 2.0 μM) | > 100 | +++ (activity was measured to be less than 2.0 μM)
10 | COC(=O)N1CCCC(N2CCC3(CC2)CN(C(=O)N(C)C)c2ccccc23)CCC1 [compound 80] | 25 to 100 | +++ (activity was measured to be less than 2.0 μM) | > 100 | +++ (activity was measured to be less than 2.0 μM)
11 | CC(=O)N1CCC2(CCN(C3CCN(c4cnc5ccccc5n4)CC3)CC2)c2ccccc21 [compound 18] | 25 to 100 | ++ (activity was measured to be from 2.0 μM to 10.0 μM) | 25 to 100 | +++ (activity was measured to be less than 2.0 μM)
12 | C#CCOC(=O)N1CCCC(N2CCC3(CC2)CN(C(=O)N(C)C)c2ccccc23)CC1 (stereo not drawn) [compound 104] | > 100 | +++ (activity was measured to be less than 2.0 μM) | > 100 | +++ (activity was measured to be less than 2.0 μM)
13 | CCOC(=O)N1CCC(C)(N2CCC3(CC2)CN(C(=O)N(C)C)c2ccccc23)CC1 [compound 81] | 25 to 100 | +++ (activity was measured to be less than 2.0 μM) | 25 to 100 | +++ (activity was measured to be less than 2.0 μM)
14 | CCCOC(=O)N1CCCC(N2CCC3(CC2)CN(C(=O)N(C)C)c2ccccc23)CC1 (stereo not drawn) [compound 69] | 25 to 100 | +++ (activity was measured to be less than 2.0 μM) | 25 to 100 | +++ (activity was measured to be less than 2.0 μM)
15 | CC(C)OC(=O)N1CC[C@H](CN2CCC3(CC2)CN(C(=O)N(C)C)c2ccccc23)C1 [compound 62] | 25 to 100 | ++ (activity was measured to be from 2.0 μM to 10.0 μM) | 25 to 100 | +++ (activity was measured to be less than 2.0 μM)
16 | Cc1nsc(N2CCC(N3CCC4(CCN(C(=O)N(C)C)c5ccccc54)CC3)CC2)n1 [compound 6] | 25 to 100 | +++ (activity was measured to be less than 2.0 μM) | 25 to 100 | +++ (activity was measured to be less than 2.0 μM)
17 | CN(C)C(=O)N1CC2(CCN(C3CCCN(C(=O)OCC(F)F)CC3)CC2)c2ccccc21 (stereo not drawn) [compound 71] | 25 to 100 | +++ (activity was measured to be less than 2.0 μM) | 25 to 100 | +++ (activity was measured to be less than 2.0 μM)
18 | C#CCCOC(=O)N1C2CCC1CC(N1CCC3(CC1)CN(C(=O)N(C)C)c1ccccc13)C2 (stereo not drawn) [compound 51] | 25 to 100 | +++ (activity was measured to be less than 2.0 μM) | 25 to 100 | +++ (activity was measured to be less than 2.0 μM)
19 | CN(C)C(=O)N1CC2(CCN(C3CCC(c4ncns4)CC3)CC2)c2ccccc21 (stereo not drawn) [compound 112] | < 25 | ++ (activity was measured to be from 2.0 μM to 10.0 μM) | < 25 | + (activity was measured to be greater than 10.0 μM)
20 | CC(C)OC(=O)N1CCCC(N2CCC3(CC2)CN(C(=O)N(C)C)c2ccccc23)CC1 (stereo not drawn) [compound 70] | 25 to 100 | ++ (activity was measured to be from 2.0 μM to 10.0 μM) | 25 to 100 | +++ (activity was measured to be less than 2.0 μM)
21 | CN(C)C(=O)N1CCC2(CCN(C3CCN(c4nccs4)CC3)CC2)c2ccccc21 [compound 35] | < 25 | ++ (activity was measured to be from 2.0 μM to 10.0 μM) | < 25 | ++ (activity was measured to be from 2.0 μM to 10.0 μM)
22 | CCOC(=O)N1CCC(N2CCC3(CCN(C(C)=O)c4ccccc43)CC2)CC1 [Compound No. 11, ethyl 4-(1′-acetyl-2′,3′-dihydro-1′H-spiro[piperidine-4,4′-quinoline]-1-yl)piperidine-1-carboxylate] | > 100 | +++ (activity was measured to be less than 2.0 μM) | > 100 | +++ (activity was measured to be less than 2.0 μM)
23 | CN(C)C(=O)N1CC2(CCN(C3CCN(c4cncc(Cl)n4)CC3)CC2)c2ccccc21 [compound 77] | 25 to 100 | +++ (activity was measured to be less than 2.0 μM) | 25 to 100 | +++ (activity was measured to be less than 2.0 μM)
24 | CC#CCOC(=O)N1CC[C@@H](CN2CCC3(CC2)CN(C(=O)N(C)C)c2ccccc23)C1 [compound 98] | 25 to 100 | +++ (activity was measured to be less than 2.0 μM) | 25 to 100 | +++ (activity was measured to be less than 2.0 μM)
25 | CC(=O)N1CCC2(CCN(C3CCN(c4ncc(C)s4)CC3)CC2)c2ccccc21 [compound 37] | < 25 | + (activity was measured to be greater than 10.0 μM) | < 25 | + (activity was measured to be greater than 10.0 μM)
26 | COC(=O)N1CC[C@@H](CN2CCC3(CC2)CN(C(=O)N(C)C)c2ccccc23)C1 [compound 54] | 25 to 100 | +++ (activity was measured to be less than 2.0 μM) | 25 to 100 | +++ (activity was measured to be less than 2.0 μM)
27 | CN(C)C(=O)N1CC2(CCN(C3CCN(c4ncns4)CC3)CC2)c2ccccc21 [compound 75] | 25 to 100 | ++ (activity was measured to be from 2.0 μM to 10.0 μM) | 25 to 100 | +++ (activity was measured to be less than 2.0 μM)
